# Results reported in patent US9243027B2, “TGR5 modulators and methods of use thereof” (Intercept Pharmaceuticals, Inc., priority 2007, dated 2016).
# Molecular target: T1, TGR5 receptor (Homo sapiens, UniProt Q8TDU6)
# T1 sequence (Q8TDU6 1-330): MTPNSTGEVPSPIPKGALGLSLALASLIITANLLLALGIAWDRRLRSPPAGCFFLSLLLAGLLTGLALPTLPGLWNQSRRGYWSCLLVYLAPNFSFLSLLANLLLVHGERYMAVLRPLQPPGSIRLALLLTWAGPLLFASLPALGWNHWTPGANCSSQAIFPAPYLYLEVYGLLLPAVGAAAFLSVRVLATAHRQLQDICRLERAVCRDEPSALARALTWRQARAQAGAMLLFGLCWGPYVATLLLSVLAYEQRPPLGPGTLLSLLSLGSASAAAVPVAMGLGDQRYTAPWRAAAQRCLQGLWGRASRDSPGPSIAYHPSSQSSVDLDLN
# Assay: Potency and efficacy on TGR5 receptor, in vitro assays (Kawamata 2003)
# Type: cell-based
# Method: The potency and efficacy of the compounds of the invention on TGR5 receptor was evaluated using in vitro assays.
smiles,measurement,value
"C[C@H](CCC(=O)O)[C@H]1CCC2C3C(CC[C@@]21C)[C@@]1(C)CC[C@@H](O)C[C@H]1C[C@H]3O (stereo partly shown) [CDCA, ChenoDeoxyCholicAcid]",TGR5 Data Efficacy,100%
